Results reported in patent publication US5480645A, “Hydroxyamines N-acyl derivatives having scavenger activity and useful in acute and chronic pathologies associated with peroxidation and inflammation phenomena” (LifeGroup S.p.A., priority 1992, dated 1996).
Like-named read-outs stand apart in the source and are kept apart here. Where no end group is shown, it is not given here.

Experiments:
mast cells = test: In vivo antidegranulating activity in rat mast cells (substance P induced); design: species or system Sprague Dawley rats
Method: 1. In vivo antidegranulating activity in rat mast cells.
The pharmacological treatment is preceded (20 min. before) by the degranulating stimulus induced by P substance (10^-6 M) injected in the auricular pinna. After 20 minutes from the degranulating stimulus, the animals are sacrificed. Their tissues are then taken (auricular pavilion) for the morphological aspect analysis of the mast cells residing in the connective tissues after fixation and coloration with toluidine blue.
The inhibition level of the mast cells degranulation in the animal tissue treated with the tested compounds in comparison with the animals treated only with the degranulating agent is considered as the parameter of the biological activity.
*the inhibition percentage is calculated considering that the effect of
the substance P is maximum (100% of mast cells degranulation).

[1] = test system: rat liver microsomes (membrane phospholipid peroxidation); test: Antiperoxidative activity on rat liver microsomes, NADPH/Fe+2/ADP induced peroxidation (MDA formation); assay type: biochemical
Method: Before the final resuspension mitochondria ape washed with 0.125M KCl containing 15 mM Hepes/10 mM tris at pH=7.4. Rat liver microsomes are prepared as described by Ernster and Nordenbrand (Ernster, Nordenbrand K. Methods Enzymol. 1967, 10:574-80). […]
b) 20 mM Hepes-Tris buffer pH=7.4, 0.5 mM cumene hydroperoxide in the presence or in the absence of the compounds to be tested. The trials after incubation are interrupted with 1 ml 35% TCA which 30 mg BHT and 1 ml 1% TBA (thiobarbituric acid) have been added to. Subsequently the incubation is carried out for 15' at 90° C. in order to allow the development of the coloured adduct.
(§1) A common oxidation product, malonyldialdehyde (MDA), to the two oxidant systems described in (a) and in (b), is measured.
The formed MDA is evaluated by spectrophotometry at 532 nm and calculated by using a molar extinction coefficient of 156.000 (Buege J. A. and Aust S. D., Methods Enzymol., 52, 302-310, 1978).
The tested compounds are solubilized in the culture medium up to the desired concentrations (see tables 1-3). […]
The antiperoxidase activity is measured as % of inhibition of malonyldialdehyde formation.

[2] = test system: rat liver microsomes (membrane phospholipid peroxidation); test: Antiperoxidative activity on rat liver microsomes, cumene hydroperoxide induced peroxidation (MDA formation); assay type: biochemical; conditions: 0.5 mM cumene hydroperoxyde, Table 3; for MDA: control 12.8
Method: b) 20 mM Hepes-Tris buffer pH=7.4, 0.5 mM cumene hydroperoxide in the presence or in the absence of the compounds to be tested. […] Subsequently the incubation is carried out for 15' at 90° C. in order to allow the development of the coloured adduct.
as §1
The tested compounds are solubilized in the culture medium up to the desired concentrations (see tables 1-3).
As peroxidant agent 0.5 mM cumene hydroperoxyde is used. As oxidation index the formation of malonyldialdehyde (MDA) is measured (nmoles/mg protein).

C6 glioma cells = test: Protection against 5 mM glutamate cytotoxicity in glioma C6 cultures; conditions: Rattus norvegicus, C6 glioma, 24 h, read-out: % Cell survival
Solubility = assay type: physicochemical; conditions: for solubility: organic solvent or mixture, read-out: solubility in org. solv.
[3] = test system: granular cerebellar cells; test: Protection against 2 mM glutamate cytotoxicity in immature granular cerebellar cell cultures; conditions: Mus musculus, 24 h, read-out: % Cellular survival
Method: The tested compounds are solubilized in DMSO at a concentration of from 1 to 100 μM.

With “substance P: degranulating stimulus injected in the auricular pinna (RPKPQQFFGLM; ends and bridges not checked; UniProt P20366 58-68, looked up) [reference compound]” the mast cells degranulation (mast cells; induced by substance P, of the numbered mast cells) was 85-95%.

For `Cc1c(C)c2c(c(C)c1O)CC(CC(=O)O)O2` (stereo not shown) [5-hydroxy-4,6,7-trimethyl-2,3-dihydrobenzofuran-2-acetic acid, reference compound], the peroxidation inhibition ([1]; 10 μM, NADPH/Fe+2/ATP, Table 1-A) was 0%, the MDA ([1]; 10 μM, NADPH/Fe+2/ATP, Table 1-A, control 42.5) was 44.19 nmoles/mg prot and the peroxidation inhibition ([1]; 20 μM, NADPH/Fe+2/ATP, Table 1-A) was 12%. The MDA ([1]; 20 μM, NADPH/Fe+2/ATP, Table 1-A, control 42.5) was 37.3 nmoles/mg prot, the peroxidation inhibition ([2]; 20 μM) was 28% and the MDA ([2]; 20 μM) was 9.25 nmoles/mg prot. The peroxidation inhibition ([2]; 50 μM) was 42% and the MDA ([2]; 50 μM) was 7.5 nmoles/mg prot.

`Cc1c(C)c2c(c(C)c1OC(=O)CCC(=O)NCCO)CCC(C)(CCCC(C)CCCC(C)CCCC(C)C)O2` [Example 2, D-α-tocopherol acid succinate 2-hydroxyethylamide] showed a peroxidation inhibition ([1]; 40 μM, preincubation time 0 minutes, ADP/NADPH/Fe, Table 2) of 1.40%, a peroxidation inhibition ([1]; 40 μM, preincubation time 15 minutes, ADP/NADPH/Fe, Table 2) of 17.30% and a peroxidation inhibition ([1]; 40 μM, preincubation time 30 minutes, ADP/NADPH/Fe, Table 2) of 29.50%. It also gave a peroxidation inhibition ([1]; 40 μM, preincubation time 45 minutes, ADP/NADPH/Fe, Table 2) of 37.90%, a peroxidation inhibition ([1]; 40 μM, preincubation time 60 minutes, ADP/NADPH/Fe, Table 2) of 40.90% and a viability at 10 µM (C6 glioma cells) of 10%. For the same molecule, the viability at 30 µM (C6 glioma cells) was 80%, the solubility (Solubility; in ethanol and chloroform) was > 10000 µg/mL and the water solubility (Solubility) was “slightly soluble”. For the same molecule, the “inhibition % (mast cells degranulation induced by substance P)” value (mast cells; s.c. 20 mg/kg, substance P 10^-6 M in auricular pinna, substance P effect taken as 100% degranulation) was 38.5%.

For `Cc1c(C)c2c(c(C)c1O)CC(CC(=O)NCCCO)O2` (stereo not shown) [Example 5, N-[2-(2,3-dihydro-5-hydroxy-4,6,7-trimethylbenzofuran)-acetyl]-propanolamine], the “peroxidation inhibition” value ([1]; 10 μM, Table 1-B, second series) was 24.0 ± 1.0%, the MDA ([1]; 10 μM, Table 1-B, second series (control 42.50 ± 2.4)) was 32.32 ± 0.4 nmoles/mg/protein and the “peroxidation inhibition” value ([1]; 20 μM, Table 1-B, second series) was 58.0 ± 7.0%. The MDA ([1]; 20 μM, Table 1-B, second series (control 42.50 ± 2.4)) was 17.87 ± 2.9 nmoles/mg/protein, the “peroxidation inhibition” value ([1]; 40 μM, Table 1-B, second series) was 94.0 ± 3.0% and the MDA ([1]; 40 μM, Table 1-B, second series (control 42.50 ± 2.4)) was 2.57 ± 1.3 nmoles/mg/protein. The “peroxidation inhibition” value ([1]; 60 μM, Table 1-B, second series) was 95.0 ± 3.0%, the MDA ([1]; 60 μM, Table 1-B, second series (control 42.50 ± 2.4)) was 2.10 ± 1.2 nmoles/mg/protein and the “peroxidation inhibition” value ([1]; 80 μM, Table 1-B, second series) was 94.0 ± 3.0%. It also gave an MDA ([1]; 80 μM, Table 1-B, second series (control 42.50 ± 2.4)) of 2.54 ± 1.3 nmoles/mg/protein, a viability at 1 µM (C6 glioma cells) of 8% and a viability at 3 µM (C6 glioma cells) of 66%. For the same molecule, the viability at 10 µM (C6 glioma cells) was 91%, the solubility (Solubility; in ethanol, DMSO, chloroform) was > 10000 µg/mL and the water solubility (Solubility) was “slightly soluble”. It also gave a viability at 1 µM [3] of 52%, a viability at 10 µM [3] of 83% and a viability at 30 µM [3] of 86%.
